From ChEMBL document CHEMBL1649440, “Impact of sarA on antibiotic susceptibility of Staphylococcus aureus in a catheter-associated in vitro model of biofilm formation” (2009)
In brackets after ≈: the same amount, converted by molar mass.

Columns and labels:
Staphylococcus aureus [1] = assay: Antimicrobial activity against Staphylococcus aureus isolate UAMS-1 by Etest method; assay type: functional
Staphylococcus aureus [2] = assay: Antimicrobial activity against Staphylococcus aureus isolate UAMS-929 harboring sarA gene mutant by Etest method; assay type: functional

Row | SMILES | MIC (Staphylococcus aureus [1]) [µg/mL] | MIC (Staphylococcus aureus [2]) [µg/mL]
1 | CCCCCCCCCC(=O)N[C@@H](Cc1c[nH]c2ccccc12)C(=O)N[C@H](CC(N)=O)C(=O)N[C@@H](CC(=O)O)C(=O)N[C@@H]1C(=O)NCC(=O)N[C@@H](CCCN)C(=O)N[C@@H](CC(=O)O)C(=O)N[C@H](C)C(=O)N[C@@H](CC(=O)O)C(=O)NCC(=O)N[C@H](CO)C(=O)N[C@@H]([C@H](C)CC(=O)O)C(=O)N[C@@H](CC(=O)c2ccccc2N)C(=O)O[C@@H]1C | 0.75 (≈ 0.463 µM) | 0.75 (≈ 0.463 µM)
2 | CC(=O)NC[C@H]1CN(c2ccc(N3CCOCC3)c(F)c2)C(=O)O1 [LINEZOLID] | 1 (≈ 2.96 µM) | 1 (≈ 2.96 µM)
3 | CN[C@H](CC(C)C)C(=O)N[C@H]1C(=O)N[C@@H](CC(N)=O)C(=O)N[C@H]2C(=O)N[C@H]3C(=O)N[C@H](C(=O)N[C@H](C(=O)O)c4cc(O)cc(O)c4-c4cc3ccc4O)[C@H](O)c3ccc(c(Cl)c3)Oc3cc2cc(c3O[C@@H]2O[C@H](CO)[C@@H](O)[C@H](O)[C@H]2O[C@H]2C[C@](C)(N)[C@H](O)[C@H](C)O2)Oc2ccc(cc2Cl)[C@H]1O [VANCOMYCIN] | 1.5 (≈ 1.04 µM) | 1.5 (≈ 1.04 µM)
